Assay results published in the supplement of paper PMC9262897, “Low-cost anti-mycobacterial drug discovery using engineered E. coli” (Nature Communications, 2022).
± gives the standard deviation of the averaged measurements.

Legend:
Efflux+ = test: growth (OD600 after 24 h); higher = more growth
Method: (§1)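 E. coli BW25113 ΔaraC (Efflux+) or efflux-pump deletion strains (ΔtolC ΔentC, ΔemrE, ΔmdtI, ΔyeeO, ΔmdtK, ΔmdtM) diluted 1:100 in M9-based medium with a drug dilution series. Growth is read as OD600 after 24 h; 3 biological replicates.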

∆emrE = test: growth (OD600 after 24 h); higher = more growth
Method: as §1

∆mdtI = test: growth (OD600 after 24 h); higher = more growth
Method: as §1

∆mdtK = test: growth (OD600 after 24 h); higher = more growth
Method: as §1

∆mdtM = test: growth (OD600 after 24 h); higher = more growth
Method: as §1

∆tolC ∆entC = test: growth (OD600 after 24 h); higher = more growth
Method: as §1

∆yeeO = test: growth (OD600 after 24 h); higher = more growth
Method: as §1

E. coli TESEC Mtb Alr = test: growth (OD600 after 10 h, mean); higher = more growth
Method: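 TESEC Mtb Alr E. coli grown in a two-dimensional dilution series of drug (µM) and arabinose (12 to 1e8 nM). Growth is read as OD600 after 10 h; values are means of 3 biological replicates.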
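Wherever growth (OD600 after 10 h, mean) is given: E. coli lacking its native Alr, complemented by codon-optimized Mtb Alr under a feedback-controlled arabinose-inducible plasmid circuit, grown in defined medium.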

## CCOC(=O)[C@H](CCc1ccccc1)N[C@H]1CCc2ccccc2N(CC(=O)O)C1=O [Benazepril]
Efflux+; drug 62.5 µM
  growth: 1.02 ± 0.032
Efflux+; drug 125 µM
  growth: 0.974 ± 0.021
Efflux+; drug 250 µM
  growth: 0.962 ± 0.014
Efflux+; drug 500 µM
  growth: 0.969 ± 0.016
Efflux+; drug 1000 µM
  growth: 0.977 ± 0.012
Efflux+; drug 2000 µM
  growth: 1 ± 0.03
∆emrE; drug 62.5 µM
  growth: 1.18 ± 0.025
∆emrE; drug 125 µM
  growth: 1.16 ± 0.016
∆emrE; drug 250 µM
  growth: 1.09 ± 0.013
∆emrE; drug 500 µM
  growth: 1.08 ± 0.016
∆emrE; drug 1000 µM
  growth: 1.065 ± 0.0041
∆emrE; drug 2000 µM
  growth: 1.14 ± 0.033
∆mdtI; drug 62.5 µM
  growth: 0.992 ± 0.021
∆mdtI; drug 125 µM
  growth: 0.978 ± 0.021
∆mdtI; drug 250 µM
  growth: 0.979 ± 0.017
∆mdtI; drug 500 µM
  growth: 0.983 ± 0.022
∆mdtI; drug 1000 µM
  growth: 1 ± 0.025
∆mdtI; drug 2000 µM
  growth: 1.009 ± 0.0041
∆mdtK; drug 62.5 µM
  growth: 0.937 ± 0.13
∆mdtK; drug 125 µM
  growth: 1.04 ± 0.05
∆mdtK; drug 250 µM
  growth: 1 ± 0.043
∆mdtK; drug 500 µM
  growth: 1.01 ± 0.013
∆mdtK; drug 1000 µM
  growth: 0.974 ± 0.053
∆mdtK; drug 2000 µM
  growth: 0.856 ± 0.043
∆mdtM; drug 62.5 µM
  growth: 0.822 ± 0.017
∆mdtM; drug 125 µM
  growth: 0.832 ± 0.033
∆mdtM; drug 250 µM
  growth: 0.807 ± 0.059
∆mdtM; drug 500 µM
  growth: 0.827 ± 0.046
∆mdtM; drug 1000 µM
  growth: 0.835 ± 0.023
∆mdtM; drug 2000 µM
  growth: 0.833 ± 0.048
∆tolC ∆entC; drug 62.5 µM
  growth: 0.756 ± 0.021
∆tolC ∆entC; drug 125 µM
  growth: 0.791 ± 0.015
∆tolC ∆entC; drug 250 µM
  growth: 0.8136 ± 0.0049
∆tolC ∆entC; drug 500 µM
  growth: 0.8286 ± 0.0026
∆tolC ∆entC; drug 1000 µM
  growth: 0.0672 ± 0.0041
∆tolC ∆entC; drug 2000 µM
  growth: 0.0535 ± 0.0011
∆yeeO; drug 62.5 µM
  growth: 0.887 ± 0.02
∆yeeO; drug 125 µM
  growth: 0.894 ± 0.012
∆yeeO; drug 250 µM
  growth: 0.895 ± 0.013
∆yeeO; drug 500 µM
  growth: 0.901 ± 0.019
∆yeeO; drug 1000 µM
  growth: 0.91 ± 0.027
∆yeeO; drug 2000 µM
  growth: 0.882 ± 0.016
E. coli TESEC Mtb Alr; drug 15.62 µM, arabinose 12 nM
  growth: 0.354
E. coli TESEC Mtb Alr; drug 15.62 µM, arabinose 24 nM
  growth: 0.338
E. coli TESEC Mtb Alr; drug 15.62 µM, arabinose 48 nM
  growth: 0.334
E. coli TESEC Mtb Alr; drug 15.62 µM, arabinose 95 nM
  growth: 0.343
E. coli TESEC Mtb Alr; drug 15.62 µM, arabinose 191 nM
  growth: 0.341
E. coli TESEC Mtb Alr; drug 15.62 µM, arabinose 381 nM
  growth: 0.338
E. coli TESEC Mtb Alr; drug 15.62 µM, arabinose 763 nM
  growth: 0.337
E. coli TESEC Mtb Alr; drug 15.62 µM, arabinose 1526 nM
  growth: 0.333
E. coli TESEC Mtb Alr; drug 15.62 µM, arabinose 3052 nM
  growth: 0.338
E. coli TESEC Mtb Alr; drug 15.62 µM, arabinose 6104 nM
  growth: 0.337
E. coli TESEC Mtb Alr; drug 15.62 µM, arabinose 12207 nM
  growth: 0.353
E. coli TESEC Mtb Alr; drug 15.62 µM, arabinose 24414 nM
  growth: 0.352
E. coli TESEC Mtb Alr; drug 15.62 µM, arabinose 48828 nM
  growth: 0.367
E. coli TESEC Mtb Alr; drug 15.62 µM, arabinose 97656 nM
  growth: 0.451
E. coli TESEC Mtb Alr; drug 15.62 µM, arabinose 195312 nM
  growth: 0.429
E. coli TESEC Mtb Alr; drug 15.62 µM, arabinose 390625 nM
  growth: 0.344
E. coli TESEC Mtb Alr; drug 15.62 µM, arabinose 781250 nM
  growth: 0.311
E. coli TESEC Mtb Alr; drug 15.62 µM, arabinose 1562500 nM
  growth: 0.295
E. coli TESEC Mtb Alr; drug 15.62 µM, arabinose 3125000 nM
  growth: 0.274
E. coli TESEC Mtb Alr; drug 15.62 µM, arabinose 6250000 nM
  growth: 0.267
E. coli TESEC Mtb Alr; drug 15.62 µM, arabinose 12500000 nM
  growth: 0.263
E. coli TESEC Mtb Alr; drug 15.62 µM, arabinose 25000000 nM
  growth: 0.259
E. coli TESEC Mtb Alr; drug 15.62 µM, arabinose 50000000 nM
  growth: 0.246
E. coli TESEC Mtb Alr; drug 15.62 µM, arabinose 100000000 nM
  growth: 0.239
E. coli TESEC Mtb Alr; drug 31.25 µM, arabinose 12 nM
  growth: 0.343
E. coli TESEC Mtb Alr; drug 31.25 µM, arabinose 24 nM
  growth: 0.339
E. coli TESEC Mtb Alr; drug 31.25 µM, arabinose 48 nM
  growth: 0.332
E. coli TESEC Mtb Alr; drug 31.25 µM, arabinose 95 nM
  growth: 0.334
E. coli TESEC Mtb Alr; drug 31.25 µM, arabinose 191 nM
  growth: 0.34
E. coli TESEC Mtb Alr; drug 31.25 µM, arabinose 381 nM
  growth: 0.325
E. coli TESEC Mtb Alr; drug 31.25 µM, arabinose 763 nM
  growth: 0.322
E. coli TESEC Mtb Alr; drug 31.25 µM, arabinose 1526 nM
  growth: 0.322
E. coli TESEC Mtb Alr; drug 31.25 µM, arabinose 3052 nM
  growth: 0.326
E. coli TESEC Mtb Alr; drug 31.25 µM, arabinose 6104 nM
  growth: 0.334
E. coli TESEC Mtb Alr; drug 31.25 µM, arabinose 12207 nM
  growth: 0.332
E. coli TESEC Mtb Alr; drug 31.25 µM, arabinose 24414 nM
  growth: 0.348
E. coli TESEC Mtb Alr; drug 31.25 µM, arabinose 48828 nM
  growth: 0.393
E. coli TESEC Mtb Alr; drug 31.25 µM, arabinose 97656 nM
  growth: 0.462
E. coli TESEC Mtb Alr; drug 31.25 µM, arabinose 195312 nM
  growth: 0.42
E. coli TESEC Mtb Alr; drug 31.25 µM, arabinose 390625 nM
  growth: 0.35
E. coli TESEC Mtb Alr; drug 31.25 µM, arabinose 781250 nM
  growth: 0.307
E. coli TESEC Mtb Alr; drug 31.25 µM, arabinose 1562500 nM
  growth: 0.287
E. coli TESEC Mtb Alr; drug 31.25 µM, arabinose 3125000 nM
  growth: 0.267
E. coli TESEC Mtb Alr; drug 31.25 µM, arabinose 6250000 nM
  growth: 0.273
E. coli TESEC Mtb Alr; drug 31.25 µM, arabinose 12500000 nM
  growth: 0.266
E. coli TESEC Mtb Alr; drug 31.25 µM, arabinose 25000000 nM
  growth: 0.258
E. coli TESEC Mtb Alr; drug 31.25 µM, arabinose 50000000 nM
  growth: 0.245
E. coli TESEC Mtb Alr; drug 31.25 µM, arabinose 100000000 nM
  growth: 0.231
E. coli TESEC Mtb Alr; drug 62.5 µM, arabinose 12 nM
  growth: 0.321
E. coli TESEC Mtb Alr; drug 62.5 µM, arabinose 24 nM
  growth: 0.326
E. coli TESEC Mtb Alr; drug 62.5 µM, arabinose 48 nM
  growth: 0.33
E. coli TESEC Mtb Alr; drug 62.5 µM, arabinose 95 nM
  growth: 0.309
E. coli TESEC Mtb Alr; drug 62.5 µM, arabinose 191 nM
  growth: 0.308
E. coli TESEC Mtb Alr; drug 62.5 µM, arabinose 381 nM
  growth: 0.309
E. coli TESEC Mtb Alr; drug 62.5 µM, arabinose 763 nM
  growth: 0.304
E. coli TESEC Mtb Alr; drug 62.5 µM, arabinose 1526 nM
  growth: 0.305
E. coli TESEC Mtb Alr; drug 62.5 µM, arabinose 3052 nM
  growth: 0.308
E. coli TESEC Mtb Alr; drug 62.5 µM, arabinose 6104 nM
  growth: 0.303
E. coli TESEC Mtb Alr; drug 62.5 µM, arabinose 12207 nM
  growth: 0.312
E. coli TESEC Mtb Alr; drug 62.5 µM, arabinose 24414 nM
  growth: 0.309
E. coli TESEC Mtb Alr; drug 62.5 µM, arabinose 48828 nM
  growth: 0.396
E. coli TESEC Mtb Alr; drug 62.5 µM, arabinose 97656 nM
  growth: 0.394
E. coli TESEC Mtb Alr; drug 62.5 µM, arabinose 195312 nM
  growth: 0.387
E. coli TESEC Mtb Alr; drug 62.5 µM, arabinose 390625 nM
  growth: 0.346
E. coli TESEC Mtb Alr; drug 62.5 µM, arabinose 781250 nM
  growth: 0.306
E. coli TESEC Mtb Alr; drug 62.5 µM, arabinose 1562500 nM
  growth: 0.286
E. coli TESEC Mtb Alr; drug 62.5 µM, arabinose 3125000 nM
  growth: 0.268
E. coli TESEC Mtb Alr; drug 62.5 µM, arabinose 6250000 nM
  growth: 0.273
E. coli TESEC Mtb Alr; drug 62.5 µM, arabinose 12500000 nM
  growth: 0.256
E. coli TESEC Mtb Alr; drug 62.5 µM, arabinose 25000000 nM
  growth: 0.252
E. coli TESEC Mtb Alr; drug 62.5 µM, arabinose 50000000 nM
  growth: 0.244
E. coli TESEC Mtb Alr; drug 62.5 µM, arabinose 100000000 nM
  growth: 0.23
E. coli TESEC Mtb Alr; drug 125 µM, arabinose 12 nM
  growth: 0.279
E. coli TESEC Mtb Alr; drug 125 µM, arabinose 24 nM
  growth: 0.285
E. coli TESEC Mtb Alr; drug 125 µM, arabinose 48 nM
  growth: 0.275
E. coli TESEC Mtb Alr; drug 125 µM, arabinose 95 nM
  growth: 0.279
E. coli TESEC Mtb Alr; drug 125 µM, arabinose 191 nM
  growth: 0.275
E. coli TESEC Mtb Alr; drug 125 µM, arabinose 381 nM
  growth: 0.274
E. coli TESEC Mtb Alr; drug 125 µM, arabinose 763 nM
  growth: 0.278
E. coli TESEC Mtb Alr; drug 125 µM, arabinose 1526 nM
  growth: 0.275
E. coli TESEC Mtb Alr; drug 125 µM, arabinose 3052 nM
  growth: 0.279
E. coli TESEC Mtb Alr; drug 125 µM, arabinose 6104 nM
  growth: 0.277
E. coli TESEC Mtb Alr; drug 125 µM, arabinose 12207 nM
  growth: 0.288
E. coli TESEC Mtb Alr; drug 125 µM, arabinose 24414 nM
  growth: 0.297
E. coli TESEC Mtb Alr; drug 125 µM, arabinose 48828 nM
  growth: 0.359
E. coli TESEC Mtb Alr; drug 125 µM, arabinose 97656 nM
  growth: 0.376
E. coli TESEC Mtb Alr; drug 125 µM, arabinose 195312 nM
  growth: 0.327
E. coli TESEC Mtb Alr; drug 125 µM, arabinose 390625 nM
  growth: 0.289
E. coli TESEC Mtb Alr; drug 125 µM, arabinose 781250 nM
  growth: 0.281
E. coli TESEC Mtb Alr; drug 125 µM, arabinose 1562500 nM
  growth: 0.269
E. coli TESEC Mtb Alr; drug 125 µM, arabinose 3125000 nM
  growth: 0.255
E. coli TESEC Mtb Alr; drug 125 µM, arabinose 6250000 nM
  growth: 0.256
E. coli TESEC Mtb Alr; drug 125 µM, arabinose 12500000 nM
  growth: 0.256
E. coli TESEC Mtb Alr; drug 125 µM, arabinose 25000000 nM
  growth: 0.244
E. coli TESEC Mtb Alr; drug 125 µM, arabinose 50000000 nM
  growth: 0.243
E. coli TESEC Mtb Alr; drug 125 µM, arabinose 100000000 nM
  growth: 0.227
E. coli TESEC Mtb Alr; drug 250 µM, arabinose 1526 nM
  growth: 0.185
E. coli TESEC Mtb Alr; drug 250 µM, arabinose 3052 nM
  growth: 0.183
E. coli TESEC Mtb Alr; drug 250 µM, arabinose 6104 nM
  growth: 0.187
E. coli TESEC Mtb Alr; drug 250 µM, arabinose 12207 nM
  growth: 0.186
